Test results from ChEMBL document CHEMBL4368904 (J Med Chem, 2019).
The source made the active and inactive calls. The rule behind the calls is not given here.

Assays:
[1] = molecular target: 5-hydroxytryptamine receptor 2B (Homo sapiens, UniProt P41595); test: Inhibition of 5HT2B (unknown origin)
[2] = molecular target: T1, 5-hydroxytryptamine receptor 2C (Homo sapiens, UniProt P28335); test: Inhibition of 5HT2C (unknown origin)
T1 sequence (P28335 whole entry): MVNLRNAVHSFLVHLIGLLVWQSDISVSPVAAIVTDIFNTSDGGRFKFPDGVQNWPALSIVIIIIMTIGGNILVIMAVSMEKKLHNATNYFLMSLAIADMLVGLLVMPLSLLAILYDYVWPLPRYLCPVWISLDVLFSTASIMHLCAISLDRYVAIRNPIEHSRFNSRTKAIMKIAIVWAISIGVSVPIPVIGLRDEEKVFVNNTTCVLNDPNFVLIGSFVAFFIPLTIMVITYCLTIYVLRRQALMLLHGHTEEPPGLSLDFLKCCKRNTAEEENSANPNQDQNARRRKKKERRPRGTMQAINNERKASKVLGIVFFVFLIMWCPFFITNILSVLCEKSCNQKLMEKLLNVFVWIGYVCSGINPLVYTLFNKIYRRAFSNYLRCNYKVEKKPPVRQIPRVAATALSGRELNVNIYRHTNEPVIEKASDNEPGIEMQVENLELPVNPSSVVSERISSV

[3] = molecular target: Alpha-2A adrenergic receptor (Homo sapiens, UniProt P08913); test: Inhibition of alpha2a receptor (unknown origin)
Adenosine receptor A2a [4] = molecular target: Adenosine receptor A2a (Homo sapiens, UniProt P29274); test: Displacement of [3H]2-[p-(2-carboxyethyl)phenylethylamino]-5-N-ethylcarboxamidoadenosine from human A2A adenosine receptor expressed in HEK293 cell membranes at 10 uM after 60 mins by scintillation proximity assay relative to adenosine 5-N-ethyluronamide
Adenosine receptor A3 [5] = molecular target: T2, Adenosine receptor A3 (Mus musculus, UniProt Q61618); test: Displacement of [125I]N6-(4-amino-3-iodobenzyl)adenosine-5-N-methyluronamide from mouse A3A adenosine receptor expressed in CHO cell membranes after 60 mins by scintillation proximity assay
T2 sequence (Q61618 whole entry): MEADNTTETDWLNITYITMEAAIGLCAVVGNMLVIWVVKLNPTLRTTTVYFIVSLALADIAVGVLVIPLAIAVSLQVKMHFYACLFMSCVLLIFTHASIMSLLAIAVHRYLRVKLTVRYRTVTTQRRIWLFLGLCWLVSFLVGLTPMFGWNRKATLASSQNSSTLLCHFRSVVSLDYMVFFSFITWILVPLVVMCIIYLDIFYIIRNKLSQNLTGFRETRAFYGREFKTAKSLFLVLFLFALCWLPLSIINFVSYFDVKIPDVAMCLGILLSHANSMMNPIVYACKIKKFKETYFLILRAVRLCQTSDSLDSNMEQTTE

Adenosine receptor A1 [6] = molecular target: T3, Adenosine receptor A1 (Homo sapiens, UniProt P30542); test: Displacement of [3H]N6-R-phenylisopropyladenosine from human A1A adenosine receptor expressed in CHO cell membranes after 60 mins by scintillation proximity assay
T3 sequence (P30542 whole entry): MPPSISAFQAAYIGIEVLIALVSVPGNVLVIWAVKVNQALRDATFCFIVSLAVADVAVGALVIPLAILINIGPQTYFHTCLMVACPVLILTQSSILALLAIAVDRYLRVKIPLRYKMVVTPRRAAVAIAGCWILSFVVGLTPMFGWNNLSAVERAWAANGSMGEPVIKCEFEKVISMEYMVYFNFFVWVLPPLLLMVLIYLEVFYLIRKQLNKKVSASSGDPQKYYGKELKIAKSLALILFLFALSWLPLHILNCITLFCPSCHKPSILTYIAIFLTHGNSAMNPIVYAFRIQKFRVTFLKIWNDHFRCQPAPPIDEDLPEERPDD

Translocator protein = Translocator protein (Homo sapiens, UniProt P30536); test: Inhibition of TSPO (unknown origin)
Adenosine receptor A3 [7] = molecular target: T4, Adenosine receptor A3 (Homo sapiens, UniProt P0DMS8); test: Displacement of [125I]N6-(4-amino-3-iodobenzyl)adenosine-5-N-methyluronamide from human A3A adenosine receptor expressed in CHO cell membranes after 60 mins by scintillation proximity assay
T4 sequence (P0DMS8 whole entry): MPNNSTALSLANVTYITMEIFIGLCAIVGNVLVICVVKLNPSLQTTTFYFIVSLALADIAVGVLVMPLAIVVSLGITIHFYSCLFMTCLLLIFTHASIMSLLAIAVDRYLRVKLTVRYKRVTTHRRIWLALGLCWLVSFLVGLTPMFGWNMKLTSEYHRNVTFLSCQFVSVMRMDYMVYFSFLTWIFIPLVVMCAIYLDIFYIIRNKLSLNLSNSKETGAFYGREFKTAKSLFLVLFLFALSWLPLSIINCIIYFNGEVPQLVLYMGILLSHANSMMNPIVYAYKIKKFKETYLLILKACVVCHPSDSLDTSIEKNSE

[8] = Oral bioavailability in CD1 mouse at 1 mg/kg; assay type: ADME, organism-based; conditions: in vivo
[9] = Stability in simulated gastric fluid after 120 mins; assay type: ADME; conditions: read-out: Stability
[10] = Protein binding in mouse plasma; assay type: ADME, cell-free
Adenosine receptor A1 [11] = molecular target: Adenosine receptor A1 (Rattus norvegicus, UniProt P25099); test: Agonist activity at rat A1A adenosine receptor expressed in CHO-K1 cell membranes incubated for 60 mins by [35S]GTPgammaS binding assay; assay type: functional
[12] = Elimination half life in CD1 mouse at 1 to 10 mg/kg, po; assay type: ADME, organism-based; conditions: in vivo
Cytochrome P450 2D6 = Cytochrome P450 2D6 (Homo sapiens, UniProt P10635)
Description: Inhibition of human CYP2D6 using dextromethorphan as substrate

[13] = Oral bioavailability in CD1 mouse at 3 mg/kg; assay type: ADME, organism-based; conditions: in vivo
[14] = Stability in human liver microsomes; assay type: ADME, Microsome
[15] = Oral bioavailability in cynomolgus monkey at 1 mg/kg; assay type: ADME, organism-based, Macaca fascicularis; conditions: in vivo
[16] = Toxicity in cynomolgus monkey effect on clinical parameters at 0.5 mg/kg, iv or 1 mg/kg, po measured after 1 day post dose; assay type: organism-based, Macaca fascicularis; conditions: in vivo, 24 h
[17] = Elimination half life in CD1 mouse at 3 to 30 mg/kg, ip; assay type: ADME, organism-based; conditions: in vivo
Mus musculus [18] = test: Induction of hypothermia in C57BL/6J mouse assessed as activity counts at 3 mg/kg, ip measured at 60 mins post dose (reference value: 15.5 +/- 5.5); assay type: functional
Adenosine receptor A1 [19] = molecular target: T5, Adenosine receptor A1 (Mus musculus, UniProt Q60612); test: Displacement of [3H]N6-R-phenylisopropyladenosine from mouse A1A adenosine receptor expressed in CHO cell membranes after 60 mins by scintillation proximity assay
T5 sequence (Q60612 whole entry): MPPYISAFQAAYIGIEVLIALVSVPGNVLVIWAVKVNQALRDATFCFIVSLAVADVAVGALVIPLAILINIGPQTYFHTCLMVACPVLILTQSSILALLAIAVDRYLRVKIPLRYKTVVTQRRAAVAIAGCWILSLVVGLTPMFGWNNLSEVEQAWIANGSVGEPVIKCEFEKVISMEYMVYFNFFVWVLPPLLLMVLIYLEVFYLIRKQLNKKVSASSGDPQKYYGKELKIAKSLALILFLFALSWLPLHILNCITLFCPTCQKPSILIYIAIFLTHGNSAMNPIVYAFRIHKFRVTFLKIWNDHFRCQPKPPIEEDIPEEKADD

Mus musculus [20] = test: Induction of hypothermia in C57BL/6J mouse assessed as body temperature at 3 mg/kg, ip measured at 60 mins post dose (reference value: 36.3 +/- 0.8 degC); assay type: functional
[21] = Toxicity in Sprague-Dawley rat assessed as reduction in heart rate at 3 mg/kg, ip; assay type: organism-based; conditions: in vivo
[22] = Protein binding in rat plasma; assay type: ADME, cell-free
Cytochrome P450 3A4 = Cytochrome P450 3A4 (Homo sapiens, UniProt P08684)
Description: Inhibition of human CYP3A4 using midazolam as substrate

[23] = Toxicity in Sprague-Dawley rat assessed as increase in blood pressure at 3 mg/kg, ip; assay type: organism-based; conditions: in vivo
Cytochrome P450 2C9 = Cytochrome P450 2C9 (Homo sapiens, UniProt P11712)
Description: Inhibition of human CYP2C9 using tolbutamide as substrate

[24] = Stability in simulated intestinal fluid; assay type: ADME; conditions: simulated gi fluid
[25] = Toxicity in rhesus monkey at 1 to 3 mg/kg dosed in food treat measured up to 4 hrs post dose; assay type: organism-based, Macaca mulatta; conditions: in vivo, po
[26] = molecular target: T6, Adenosine receptor A3 (Mus musculus) (UniProt Q61618); test: Agonist activity at mouse A3AR adenosine receptor at 10 uM after 60 mins by [35S]GTPgammaS binding assay relative to (2S,3S,4R,5R)-5-(6-amino-9H-purin-9-yl)-N-ethyl-3,4-dihydroxytetrahydrofuran-2-carboxamide; assay type: functional
T6 sequence (whole entry): T2 sequence (Q61618 whole entry)

[27] = Fraction unbound in mouse plasma at 10 uM; assay type: ADME, cell-free
[28] = Inhibition of rat benzodiazepine receptor
[29] = molecular target: T7, Adenosine receptor A3 (Homo sapiens) (UniProt P0DMS8); test: Displacement of [125I]N6-(4-amino-3-iodobenzyl)adenosine-5-N-methyluronamide from human A3A adenosine receptor expressed in CHO cell membranes at 10 uM after 60 mins by scintillation proximity assay relative to adenosine 5-N-ethyluronamide
T7 sequence (whole entry): T4 sequence (P0DMS8 whole entry)

Mus musculus [30] = species: Mus musculus; test: Selectivity index, ratio of Ki for mouse A3A adenosine receptor to Ki for mouse A1A adenosine receptor expressed in CHO cell membranes after 60 mins by scintillation proximity assay
[31] = molecular target: Sigma intracellular receptor 2 (Homo sapiens, UniProt Q5BJF2); test: Inhibition of sigma receptor 2 (unknown origin)
Mus musculus [32] = test: Induction of hypothermia in C57BL/6J mouse assessed as body temperature at […], icv measured up to 120 mins post dose; assay type: functional, organism-based
[33] = molecular target: T8, Adenosine receptor A1 (Mus musculus) (UniProt Q60612); test: Agonist activity at mouse A1A adenosine receptor at 10 uM after 60 mins by [35S]GTPgammaS binding assay relative to (2S,3S,4R,5R)-5-(6-amino-9H-purin-9-yl)-N-ethyl-3,4-dihydroxytetrahydrofuran-2-carboxamide; assay type: functional
T8 sequence (whole entry): T5 sequence (Q60612 whole entry)

Mus musculus [34] = test: Induction of hypothermia in C57BL/6J mouse assessed as body temperature at […], icv measured after 10 hrs post dose; assay type: functional, organism-based
[35] = Fraction unbound in human plasma at 10 uM; assay type: ADME, cell-free
[36] = Fraction unbound in rat plasma at 10 uM; assay type: ADME, cell-free
[37] = Toxicity in Sprague-Dawley rat assessed as increase in blood pressure at 0.02 mg/kg, iv; assay type: organism-based; conditions: in vivo
[38] = molecular target: Adenosine receptor A1 (Rattus norvegicus) (UniProt P25099); conditions: CHO-K1, 10 uM
Adenosine receptor A2a [39] = molecular target: Adenosine receptor A2a (Mus musculus, UniProt Q60613); test: Displacement of [3H]2-[p-(2-carboxyethyl)phenylethylamino]-5-N-ethylcarboxamidoadenosine from mouse A2A adenosine receptor expressed in HEK293 cell membranes after 60 mins by scintillation proximity assay
Adenosine receptor A2a (Mus musculus, UniProt Q60613), sequence (Q60613 whole entry): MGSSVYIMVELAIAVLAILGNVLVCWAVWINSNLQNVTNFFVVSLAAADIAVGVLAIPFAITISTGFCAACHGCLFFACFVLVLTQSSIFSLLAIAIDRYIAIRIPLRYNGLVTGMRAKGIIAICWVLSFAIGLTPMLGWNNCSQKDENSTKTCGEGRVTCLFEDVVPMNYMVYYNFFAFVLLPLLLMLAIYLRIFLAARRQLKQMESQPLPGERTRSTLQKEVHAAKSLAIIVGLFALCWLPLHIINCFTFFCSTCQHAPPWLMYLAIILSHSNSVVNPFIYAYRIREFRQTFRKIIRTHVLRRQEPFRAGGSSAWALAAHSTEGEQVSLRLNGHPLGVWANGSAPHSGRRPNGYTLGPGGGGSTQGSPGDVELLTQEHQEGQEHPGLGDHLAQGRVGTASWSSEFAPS

Adenosine receptor A2a (Homo sapiens, UniProt P29274), sequence (P29274 whole entry): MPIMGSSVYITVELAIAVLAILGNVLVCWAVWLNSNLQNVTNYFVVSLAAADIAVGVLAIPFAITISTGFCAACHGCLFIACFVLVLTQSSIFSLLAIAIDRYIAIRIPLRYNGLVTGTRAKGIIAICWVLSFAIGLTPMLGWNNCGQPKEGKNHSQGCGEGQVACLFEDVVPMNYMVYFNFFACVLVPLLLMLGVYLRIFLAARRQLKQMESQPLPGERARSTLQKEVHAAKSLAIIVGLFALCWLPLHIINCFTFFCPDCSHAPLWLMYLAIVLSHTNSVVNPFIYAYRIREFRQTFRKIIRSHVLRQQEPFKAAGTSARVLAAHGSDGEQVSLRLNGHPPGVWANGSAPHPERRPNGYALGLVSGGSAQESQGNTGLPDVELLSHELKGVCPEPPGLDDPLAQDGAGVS
Cytochrome P450 2D6, sequence (P10635 whole entry): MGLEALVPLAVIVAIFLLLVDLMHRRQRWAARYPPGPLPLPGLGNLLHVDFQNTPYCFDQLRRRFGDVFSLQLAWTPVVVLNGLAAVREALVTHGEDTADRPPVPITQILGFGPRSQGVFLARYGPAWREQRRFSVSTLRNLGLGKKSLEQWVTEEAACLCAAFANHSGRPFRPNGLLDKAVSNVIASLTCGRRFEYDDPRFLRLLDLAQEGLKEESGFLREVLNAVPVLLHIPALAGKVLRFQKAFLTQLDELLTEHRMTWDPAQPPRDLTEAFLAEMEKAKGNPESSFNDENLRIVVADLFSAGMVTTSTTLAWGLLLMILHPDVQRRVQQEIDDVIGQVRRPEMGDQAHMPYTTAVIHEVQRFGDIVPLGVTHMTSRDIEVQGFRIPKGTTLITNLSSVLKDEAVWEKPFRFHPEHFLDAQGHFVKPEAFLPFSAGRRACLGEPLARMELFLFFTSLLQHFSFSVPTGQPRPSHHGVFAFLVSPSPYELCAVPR
Cytochrome P450 2C9, sequence (P11712 whole entry): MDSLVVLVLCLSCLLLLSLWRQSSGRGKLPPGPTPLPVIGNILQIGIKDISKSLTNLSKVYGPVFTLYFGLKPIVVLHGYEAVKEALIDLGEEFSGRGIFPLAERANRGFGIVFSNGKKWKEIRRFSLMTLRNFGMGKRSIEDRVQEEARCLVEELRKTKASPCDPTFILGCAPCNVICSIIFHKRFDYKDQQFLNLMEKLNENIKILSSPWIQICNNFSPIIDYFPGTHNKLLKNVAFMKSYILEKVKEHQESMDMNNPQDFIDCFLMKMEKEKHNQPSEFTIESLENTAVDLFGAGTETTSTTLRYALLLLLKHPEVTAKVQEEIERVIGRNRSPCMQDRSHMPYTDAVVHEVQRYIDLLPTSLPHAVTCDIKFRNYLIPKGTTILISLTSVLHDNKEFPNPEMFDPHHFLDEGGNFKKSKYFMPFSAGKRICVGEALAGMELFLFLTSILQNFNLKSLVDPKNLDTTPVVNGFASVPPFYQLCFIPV
Cytochrome P450 3A4, sequence (P08684 whole entry): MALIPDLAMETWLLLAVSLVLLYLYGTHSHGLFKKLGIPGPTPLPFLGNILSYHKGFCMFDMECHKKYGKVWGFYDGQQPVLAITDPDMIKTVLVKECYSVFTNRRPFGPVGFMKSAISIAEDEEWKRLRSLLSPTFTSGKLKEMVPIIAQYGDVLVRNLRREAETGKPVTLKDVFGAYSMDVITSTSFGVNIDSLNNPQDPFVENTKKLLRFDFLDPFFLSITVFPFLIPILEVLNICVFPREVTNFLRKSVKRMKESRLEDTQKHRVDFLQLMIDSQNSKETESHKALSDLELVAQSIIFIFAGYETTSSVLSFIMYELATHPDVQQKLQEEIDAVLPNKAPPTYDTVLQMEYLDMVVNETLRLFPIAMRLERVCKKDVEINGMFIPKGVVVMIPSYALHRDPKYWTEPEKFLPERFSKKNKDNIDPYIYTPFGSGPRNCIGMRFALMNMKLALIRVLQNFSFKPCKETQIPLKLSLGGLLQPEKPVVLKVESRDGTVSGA
Adenosine receptor A1 (Rattus norvegicus), sequence (P25099 whole entry): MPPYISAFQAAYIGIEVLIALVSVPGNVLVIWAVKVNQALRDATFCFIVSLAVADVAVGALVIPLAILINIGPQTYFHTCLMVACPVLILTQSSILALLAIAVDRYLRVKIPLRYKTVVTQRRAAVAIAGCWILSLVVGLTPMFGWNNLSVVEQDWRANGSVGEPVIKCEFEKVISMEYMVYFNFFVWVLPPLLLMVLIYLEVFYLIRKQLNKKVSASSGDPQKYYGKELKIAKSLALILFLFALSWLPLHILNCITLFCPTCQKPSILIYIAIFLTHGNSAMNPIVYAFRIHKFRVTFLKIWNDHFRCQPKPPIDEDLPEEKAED
Adenosine receptor A1 (Rattus norvegicus, UniProt P25099), sequence (P25099 whole entry): as above
5-hydroxytryptamine receptor 2B, sequence (P41595 whole entry): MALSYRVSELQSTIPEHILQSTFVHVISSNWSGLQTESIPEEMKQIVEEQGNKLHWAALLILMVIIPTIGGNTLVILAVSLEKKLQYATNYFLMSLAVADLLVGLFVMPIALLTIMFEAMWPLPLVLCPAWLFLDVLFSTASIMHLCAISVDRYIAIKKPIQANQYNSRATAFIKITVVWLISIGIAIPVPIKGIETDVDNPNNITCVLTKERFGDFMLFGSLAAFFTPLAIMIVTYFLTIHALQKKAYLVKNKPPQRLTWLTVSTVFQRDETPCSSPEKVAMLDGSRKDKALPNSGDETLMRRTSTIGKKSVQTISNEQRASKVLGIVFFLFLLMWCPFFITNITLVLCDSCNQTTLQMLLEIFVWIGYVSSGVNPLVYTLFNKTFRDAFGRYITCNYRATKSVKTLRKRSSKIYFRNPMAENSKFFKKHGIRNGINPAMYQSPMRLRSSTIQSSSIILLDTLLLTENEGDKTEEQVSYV
Sigma intracellular receptor 2, sequence (Q5BJF2 whole entry): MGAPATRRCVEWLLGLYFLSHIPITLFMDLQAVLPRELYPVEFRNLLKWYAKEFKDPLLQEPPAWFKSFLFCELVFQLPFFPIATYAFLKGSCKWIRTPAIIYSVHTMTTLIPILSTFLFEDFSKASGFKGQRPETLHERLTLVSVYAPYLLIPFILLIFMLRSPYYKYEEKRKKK
Alpha-2A adrenergic receptor, sequence (P08913 whole entry): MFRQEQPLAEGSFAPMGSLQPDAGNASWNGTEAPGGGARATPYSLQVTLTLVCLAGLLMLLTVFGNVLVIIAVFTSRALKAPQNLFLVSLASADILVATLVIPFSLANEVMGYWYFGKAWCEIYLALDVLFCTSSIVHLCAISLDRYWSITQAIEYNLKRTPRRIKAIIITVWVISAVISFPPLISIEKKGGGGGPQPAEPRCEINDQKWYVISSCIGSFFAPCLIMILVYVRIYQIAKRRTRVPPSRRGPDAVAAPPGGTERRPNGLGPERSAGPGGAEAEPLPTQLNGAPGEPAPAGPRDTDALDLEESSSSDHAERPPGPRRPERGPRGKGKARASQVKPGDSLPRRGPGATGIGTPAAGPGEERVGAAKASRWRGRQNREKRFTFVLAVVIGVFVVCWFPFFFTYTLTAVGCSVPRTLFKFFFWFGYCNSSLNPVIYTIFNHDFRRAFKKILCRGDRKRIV
Translocator protein, sequence (P30536 whole entry): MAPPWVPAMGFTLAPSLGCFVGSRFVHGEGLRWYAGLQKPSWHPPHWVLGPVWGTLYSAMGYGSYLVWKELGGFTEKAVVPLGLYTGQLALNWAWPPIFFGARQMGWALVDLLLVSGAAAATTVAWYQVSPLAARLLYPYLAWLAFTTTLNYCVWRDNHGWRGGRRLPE

## O[C@@H]1[C@H](O)[C@@H]2C[C@@H]2[C@H]1n1cnc2c(NC(C3CCC3)C3CCC3)nc(Cl)nc21
[1]
  Ki: 2900 nM
[2]
  Ki: 8.32 µM
[3]
  Ki: 6.96 µM
Adenosine receptor A2a [4]
  inhibition: 46%
Adenosine receptor A3 [5]
  Ki: 385 nM
Adenosine receptor A1 [6]
  Ki: 961 nM
Translocator protein
  Ki: 2380 nM
Adenosine receptor A3 [7]
  Ki: 822 nM

## O[C@@H]1[C@H](O)[C@@H]2C[C@@H]2[C@H]1n1cnc2c(NC(C3CC3)C3CC3)nc(Cl)nc21
[8]
  bioavailability: 98%
[9]
  remaining at 2 h: 51%
[10]
  PPB: 94%
Adenosine receptor A1 [11]
  EC50: 6.65 nM
[12]
  beta t1/2: 5 to 11 h
Cytochrome P450 2D6
  IC50: > 25 µM
[13]
  bioavailability: 124%
[14]
  Stability: Stable
[15]
  F: 24%
[16]
  Activity: Non-Toxic
[17]
  beta t1/2: 2.5 to 4 h
Mus musculus [18]
  Activity: 5.5
Adenosine receptor A1 [19]
  Ki: 5.2 nM
Mus musculus [20]
  T: 33.4 °C
[21]
  Activity: Toxic
[22]
  PPB: 90%
Cytochrome P450 3A4
  IC50: > 25 µM
[23]
  Activity: Toxic
Cytochrome P450 2C9
  IC50: > 25 µM
[24]
  Stability: Stable
[25]
  Activity: Non-Toxic

## OC[C@@]12C[C@@H]1[C@@H](n1cnc3c(NC(C4CCC4)C4CCC4)ncnc31)[C@H](O)[C@@H]2O
[26]
  Emax: 92%
[27]
  Fu: 27.5%
[28]
  Ki: 4.08 µM
[29]
  inhibition: 51%
Adenosine receptor A2a [4]
  inhibition: 34%
Mus musculus [30]
  Ratio Ki: 1730
[31]
  Ki: 753 nM
Mus musculus [32]
  Activity: Active
[33]
  Emax: 97%
Mus musculus [34]
  Activity: Active
Mus musculus [18]
  Activity: 18.1
Mus musculus [20]
  T: 36.2 °C
[35]
  Fu: 14.6%
[36]
  Fu: 17.8%

## OC[C@H]1O[C@@H](n2cnc3c(NC4CCCC4)nc(Cl)nc32)[C@H](O)[C@@H]1O
[37]
  Activity: Toxic
Adenosine receptor A3 [5]
  Ki: […]
Adenosine receptor A1 [19]
  Ki: […]
[38]
  Emax: 103%
Adenosine receptor A2a [39]
  Ki: 988 nM
